Converted amounts (≈) assume the structure as drawn.
Experiments:
[1] = BIRB 796 binding to cyclodextrin (binding isotherm from solubility data), HPBCD; format: physicochemical
Experimental: (§1) The binding affinity for the BIRB 796 interaction with the ligands was evaluated in the following manner:
(§2) where Lt (ligand) is the total HPBCD or SBECD concentration, St is the solubility of BIRB 796 in the presence of ligand, So is the solubility in the absence of ligand, K11 is the binding constant for the 1:1 complex and K12 is the binding constant for the 1:2 complex. Upon rearrangement, these two equations simplify to the following linear equation: [formula]
(§3) A plot of [L]t vs. (StSo)/[Lt] yields the binding affinity according to the above equation.
(§4) FIG. 3 illustrates the binding analysis for the interaction between BIRB 796 and HPBCD at different concentrations. FIG. 4 illustrates the binding analysis for the interaction between BIRB 796 and SBECD at different concentrations. The binding constants were obtained through the slope and intercept values.

[2] = Solubility and/or stability of BIRB 796 in pharmaceutically-acceptable solvents; format: physicochemical; settings: 30% PEG 400, 40% PG/10% ethanol or aqueous buffer solutions at any pH
[3] = test system: proinflammatory cytokines, such as tumor necrosis factor (TNF) and interleukin-1 (IL-1); settings: disclosed in PCT/US99/29165; cited from earlier work
[4] = Stability of BIRB 796 in PEG 400 as function of temperature, storage atmosphere and light exposure; format: physicochemical; settings: for kobs / t90: PEG 400, C0 = 30 mg/mL; for half-life at 30 mg/mL: solution in PEG 400, PEG 400, C0 = 30 mg/mL
Experimental: The stability of BIRB 796 in PEG 400 was evaluated. An initial BIRB 796 concentration of approximately 30 mg/mL was prepared and the percent of BIRB 796 remaining in the PEG 400 solvent evaluated over an approximately two week time frame for differing conditions. The PEG 400-BIRB 796 mixture was kept under several different conditions: (1) at room temperature (about 23° C.) in ambient air in the dark; (2) at room temperature (about 23° C.) in ambient air in the light; (3) at 40° C. in ambient air; (4) at 40° C. in ambient air, the mixture being imbued with 0.1% sodium metabisulfite, an antioxidant; (5) at 60° C. in ambient air; (6) at 60° C. in an oxygen atmosphere; and (7) at 60° C. in a nitrogen atmosphere.
Rate constants were calculated using linear regression analysis of the data.

[5] = Effect of cyclodextrins on the aqueous solubility of BIRB 796; format: physicochemical; settings: for solubility: aqueous
Experimental: Complexing cyclodextrin agents were evaluated as a means to improve the solubility of BIRB 796. The solubility of BIRB 796 was evaluated as a function of the concentrations of underivatized parent β-cyclodextrin (BCD), the alkylated derivatives […]. The results of Table 1 with respect to the solubility of BIRB 796 as a function of HPBCD concentration are illustrated in FIG. 1, and the results of Table 1 with respect to the solubitlity of BIRB 796 as a function of SBECD concentration are shown in FIG. 2.

[6] = BIRB 796 binding to cyclodextrin (binding isotherm from solubility data), SBECD; format: physicochemical
Experimental: as §1, §2, §3, §4

[7] = 40° C., 0.1% sodium metabisulfite

**Q.** Which results are given for `Cc1ccc(-n2nc(C(C)(C)C)cc2NC(=O)Nc2ccc(OCCN3CCOCC3)c3ccccc23)cc1` [BIRB 796, 1-(5-tert-butyl-2-p-tolyl-2H-pyrazol-3-yl)-3-[4-(2-morpholin-4-yl-ethoxy)-naphthalen-1-yl]-urea]?
**A.** Binding Constants K1:1 ([1]; 1:1 complex with HPBCD): 675 M⁻¹; Binding Constants K1.2 ([1]; 1:2 complex with HPBCD): 17.5 M⁻¹; solubility and/or stability [2]: can not achieve a desirable solubility and/or stability; inhibitory activity with respect to proinflammatory cytokines [3]: unexpectedly significant inhibitory activity; kobs ([4]; 23° C., air (dark)): -0.00253 day⁻¹; t90 ([4]; 23° C., air (dark)): 41.5 days; kobs ([4]; 23° C., air, light): -0.0078 day⁻¹; t90 ([4]; 23° C., air, light): 13.5 days; kobs [4, 7]: -0.0161 day⁻¹; t90 [4, 7]: 6.52 days; kobs ([4]; 40° C., air): -0.0192 day⁻¹; t90 ([4]; 40° C., air): 5.47 days; kobs ([4]; 60° C., N2): -0.0552 day⁻¹; t90 ([4]; 60° C., N2): 1.90 days; kobs ([4]; 60° C., O2): -0.0772 day⁻¹; t90 ([4]; 60° C., O2): 1.36 days; kobs ([4]; 60° C., air): -0.0587 day⁻¹; t90 ([4]; 60° C., air): 1.79 days; degradation rate under constant light relative to dark ([4]; PEG 400, room temperature (about 23° C.), ambient air): approximately three-times as fast; decomposition in PEG 400 ([4]; over two weeks, 23° C.): significant decomposition was observed; half-life at 30 mg/mL ([4]; 23° C., air (dark)): 274 days; half-life at 30 mg/mL ([4]; 23° C., air, light): 88.8 days; half-life at 30 mg/mL [4, 7]: 43 days; half-life at 30 mg/mL ([4]; 40° C., air): 36.1 days; half-life at 30 mg/mL ([4]; 60° C., N2): 12.6 days; half-life at 30 mg/mL ([4]; 60° C., O2): 8.98 days; half-life at 30 mg/mL ([4]; 60° C., air): 11.8 days; solubility ([5]; aqueous cyclodextrin solution, aqueous with cosolvent or surfactant or cyclodextrin, BCD 0.7 % w/v): 44 µg/mL (≈ 83.4 µM); solubility ([5]; aqueous cyclodextrin solution, aqueous with cosolvent or surfactant or cyclodextrin, BCD 1.4 % w/v): 74 µg/mL (≈ 140 µM); solubility ([5]; aqueous cyclodextrin solution, aqueous with cosolvent or surfactant or cyclodextrin, BCD 2 % w/v): 87 µg/mL (≈ 165 µM); solubility ([5]; aqueous cyclodextrin solution, aqueous with cosolvent or surfactant or cyclodextrin, HPBCD 1 % w/v): 24 µg/mL (≈ 45.5 µM); solubility ([5]; aqueous cyclodextrin solution, aqueous with cosolvent or surfactant or cyclodextrin, HPBCD 2.5 % w/v): 49 µg/mL (≈ 92.9 µM); solubility ([5]; aqueous cyclodextrin solution, aqueous with cosolvent or surfactant or cyclodextrin, HPBCD 5 % w/v): 137 µg/mL (≈ 260 µM); solubility ([5]; aqueous cyclodextrin solution, aqueous with cosolvent or surfactant or cyclodextrin, HPBCD 10 % w/v): 233 µg/mL (≈ 442 µM); solubility ([5]; aqueous cyclodextrin solution, aqueous with cosolvent or surfactant or cyclodextrin, HPBCD 25 % w/v): 1540 µg/mL (≈ 2910 µM); solubility ([5]; aqueous cyclodextrin solution, aqueous with cosolvent or surfactant or cyclodextrin, SBECD 1 % w/v): 21 µg/mL (≈ 39.8 µM); solubility ([5]; aqueous cyclodextrin solution, aqueous with cosolvent or surfactant or cyclodextrin, SBECD 2.5 % w/v): 85 µg/mL (≈ 161 µM); solubility ([5]; aqueous cyclodextrin solution, aqueous with cosolvent or surfactant or cyclodextrin, SBECD 5 % w/v): 156 µg/mL (≈ 296 µM); solubility ([5]; aqueous cyclodextrin solution, aqueous with cosolvent or surfactant or cyclodextrin, SBECD 10 % w/v): 371 µg/mL (≈ 703 µM); solubility ([5]; aqueous cyclodextrin solution, aqueous with cosolvent or surfactant or cyclodextrin, SBECD 25 % w/v): 2170 µg/mL (≈ 4120 µM); solubility ([5]; aqueous solution without cyclodextrin, SBECD 0 % w/v): 0.5 µg/mL (≈ 0.948 µM); solubility ([5]; aqueous solution without cyclodextrin, no cyclodextrin (0 % w/v)): 3.3 µg/mL (≈ 6.25 µM); BIRB 796 solubilized by SBECD, more than by HPBCD ([5]; highest cyclodextrin concentration evaluated (25% w/v)): approximately 40%; Binding Constants K1:1 ([6]; 1:1 complex with SBECD): 8337 M⁻¹; Binding Constants K1.2 ([6]; 1:2 complex with SBECD): 29.1 M⁻¹; binding affinity of SBECD for BIRB 796 compared with HPBCD ([6]; SBECD versus HPBCD, Table 2): approximately an order of magnitude higher binding affinity

Reference: patent US20030068340A1, “Parenteral formulations of 1-(5-tert-butyl-2-p-tolyl-2H-pyrazol-3-yl)-3-[4-(2-morpholin-4-yl-ethoxy)-naphthalen-1-yl]-urea” (Boehringer Ingelheim Pharmaceuticals, Inc., priority 2001, published 2003)
